Laboratory results published in US8383663B2, “Bendamustine anionic-catioinic cyclopolysaccharide compositions” (priority 2010, dated 2013).
Where a name gives a salt, the structure may show the parent alone.

Test system: human breast carcinoma MDA-MB-231 cells
Experiment: Growth of subcutaneous solid tumors of human breast carcinoma MDA-MB-231 cells in mice
Assay type: in vivo, Balb/c mice
Conditions: 35 mg/kg i.v. on day 1, 2, 13 and 14, Average (SEM)
Protocol: Effect of bendamustine in a composition comprising sodium sulfobutyl ether β-cyclodextrin and heptakis(6-amino-6-deoxy-β-cyclodextrin) on growth of subcutaneous solid tumors of human breast carcinoma MDA-MB-231 cells in Balb/c mice.
Balb/c mice aging 5 to 6 weeks were purchased from Charles River Canada Inc. The animals were kept 5 per cage with an air filter cover under light (12 light/dark cycle, light on at 6H00) and temperature (22°±1° C.)-controlled environment. All manipulations of animals were performed under a sterilized laminar. The animals had ad libitum access to Purina mouse chow (Pro Lab PMH 4018, Trademark of Agway, Syracuse, N.Y.) and water. These animal studies were conducted according to the “Guidelines for Care and Use of Experimental Animals”.
Human breast cancer cells MDA-MB 231 were cultured in the appropriated culture medium. The cells were harvested in their logarithmic growth phase for the preparation of tumor implantation.
MDA-MB-231 cells (5.0×10^5 cells per an injection) in culture medium with 30% Matrigel were subcutaneously inoculated at 2 sides of the flank of each animal. Nine to ten days after implantation, when tumor size reaches to 0.5 to 0.8 cm in the diameter, the animals were be randomly divided into groups, 5 animals per group. The treatments by intravenously injection were performed on day 1, 2, 13 and 14. The control group was treated with isotonic saline. The reference group was treated with 35 mg/kg dose of bendamustine HCl in water (7 mg/mL). The test group was treated with 60 mg/kg dose (equitoxic to the reference group treatment) of the composition of the present invention, comprising 13 mg/g bendamustine HCl, 20% SBECD and 1% H6A, and mannitol, prepared according to the procedure set forth in Example 1.
Subcutaneous solid tumor measurements were performed on the day of first injection and at 3- to 4-day intervals thereafter. Two largest perpendicular diameters of each tumor were measured with calipers and tumor size was estimated using formula […] where TV: tumor volume; L: length; W: width.
The body weights of animals were also noted.

Cn1c(CCCC(=O)O)nc2cc(N(CCCl)CCCl)ccc21 [Reference BM, bendamustine HCl]
Tumor weight after treatment (day 0): 0.111 (0.013) g | Tumor weight after treatment (day 2): 0.123 (0.016) g | Tumor weight after treatment (day 5): 0.134 (0.015) g | Tumor weight after treatment (day 7): 0.146 (0.017) g | Tumor weight after treatment (day 9): 0.156 (0.017) g | Tumor weight after treatment (day 12): 0.174 (0.018) g | Tumor weight after treatment (day 14): 0.205 (0.021) g | Tumor weight after treatment (day 16): 0.228 (0.024) g | Tumor weight after treatment (day 19): 0.248 (0.035) g | Tumor weight after treatment (day 21): 0.272 (0.042) g | Tumor weight after treatment (day 23): 0.296 (0.047) g
